Target: mGlyT-1b (Mus musculus (Mouse), UniProt P28571)
Assay: Glycine Uptake Inhibition Assay (mGlyT-1b)
Assay type: cell-based
Conditions: [3H]-glycine uptake in Flp-in-CHO cells stably transfected with mGlyT1b cDNA; 20 min preincubation at 22° C.
Description: DMEM complete medium: Nutrient mixture F-12 (Gibco Life-technologies), fetal bovine serum (FBS) 5%, (Gibco life technologies), Penicillin/Streptomycin 1% (Gibco life technologies), Hygromycin 0.6 mg/ml (Gibco life technologies), Glutamine 1 mM Gibco life technologies)
Uptake buffer (UB): 150 mM NaCl, 10 mM Hepes-Tris, pH 7.4, 1 mM CaCl2, 2.5 mM KCl, 2.5 mM MgSO4, 10 mM (+) D-glucose.
Flp-in™-CHO (Invitrogen Cat no R758-07) cells stably transfected with mGlyT1b cDNA.
Glycine Uptake Inhibition Assay (mGlyT-1b)
On day 1 mammalian cells, (Flp-in™-CHO), transfected with mGlyT-1b cDNA, were plated at the density of 40,000 cells/well in complete F-12 medium, without hygromycin in 96-well culture plates. On day 2, the medium was aspirated and the cells were washed twice with uptake buffer (UB). The cells were then incubated for 20 min at 22° C. with either (i) no potential competitor, (ii) 10 mM non-radioactive glycine, (iii) a concentration of a potential inhibitor. A range of concentrations of the potential inhibitor was used to generate data for calculating the concentration of inhibitor resulting in 50% of the effect (e.g. IC50, the concentration of the competitor inhibiting glycine uptake of 50%). A solution was then immediately added containing [^3H]-glycine 60 nM (11-16 Ci/mmol) and 25 μM non-radioactive glycine. The plates were incubated with gentle shaking and the reaction was stopped by aspiration of the mixture and washing (three times) with ice-cold UB. The cells were lysed with scintillation liquid, shaken 3 hours and the radioactivity in the cells was counted using a scintillation counter.

Chain of mGlyT-1b (P28571 other isoform, or with tags, fused parts or gaps isoform P28571-2): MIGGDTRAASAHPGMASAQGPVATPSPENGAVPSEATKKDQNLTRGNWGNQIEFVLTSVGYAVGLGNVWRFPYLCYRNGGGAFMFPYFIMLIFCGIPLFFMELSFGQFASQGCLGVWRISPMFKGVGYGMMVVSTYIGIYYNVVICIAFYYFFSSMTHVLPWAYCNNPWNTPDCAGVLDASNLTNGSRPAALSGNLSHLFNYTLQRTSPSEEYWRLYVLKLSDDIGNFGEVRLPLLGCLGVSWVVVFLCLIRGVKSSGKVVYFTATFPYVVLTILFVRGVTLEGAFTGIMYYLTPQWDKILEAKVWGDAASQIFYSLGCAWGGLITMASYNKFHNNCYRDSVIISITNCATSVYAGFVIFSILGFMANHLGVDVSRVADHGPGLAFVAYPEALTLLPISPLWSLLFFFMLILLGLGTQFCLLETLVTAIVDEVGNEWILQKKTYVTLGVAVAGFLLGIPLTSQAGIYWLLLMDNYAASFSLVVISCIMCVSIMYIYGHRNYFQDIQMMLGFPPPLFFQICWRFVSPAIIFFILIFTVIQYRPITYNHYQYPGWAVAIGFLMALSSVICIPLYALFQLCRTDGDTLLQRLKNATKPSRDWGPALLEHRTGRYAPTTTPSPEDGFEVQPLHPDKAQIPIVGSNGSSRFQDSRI

SMILES | IC50
COc1cc(C(F)(F)F)cc(C2CC2)c1C(=O)N[C@@H]1COCC[C@H]1N1CCCC1 (racemic) [Example 27, Cyclopropyl-6-methoxy-N-((3SR,4RS) 4 pyrrolidin-1-yl-tetrahydro-pyran-3-yl)-4-trifluoro-methyl-benzamide] | 0.0147 µM
COc1cc(C(F)(F)F)cc(SC)c1C(=O)N[C@@H]1COCC[C@H]1NC1(C)CCCC1 (racemic) [Example 28, 2-Methoxy-N-[(3SR,4RS)-4-(1-methyl-cyclo-pentylamino)-tetrahydro-pyran-3-yl]-6-methyl-sulfanyl-4-trifluoromethyl-benzamide] | 0.144 µM
CC1(N[C@@H]2CCOC[C@H]2NC(=O)c2ccc(C(F)(F)F)cc2C2CC2)CCCC1 (racemic) [Example 29, 2-Cyclopropyl-N-[(3SR,4RS)-4-(1-methyl-cyclo-pentyl-amino)tetra-hydro-pyran-3-yl]-4-trifluoromethyl-benzamide] | 0.235 µM
CC(N[C@@H]1CCOC[C@H]1NC(=O)c1ccc(C(F)(F)F)cc1C1CC1)C1CC1 (mixture of isomers) [Example 30, 2-Cyclopropyl-N-[(3RS,4SR)-4-(1-cyclopropyl-ethylamino)-tetrahydro-pyran-3-yl]-4-trifluoro-methylbenzamide] | 0.0838 µM
COc1cc(C(F)(F)F)cc(SC)c1C(=O)N[C@@H]1COCC[C@H]1NC(C)C1CC1 (mixture of isomers) [Example 31, N-[(3SR,4RS)-4-(1-Cyclopropyl-ethylamino)-tetrahydro-pyran-3-yl]-2-methoxy-6-methylsulfanyl-4-trifluoro-methyl-benzamide] | 0.276 µM
O=C(N[C@@H]1COCC[C@H]1NC1CCC1)c1ccc(C(F)(F)F)cc1C1CC1 (racemic) [Example 32, N-((3SR,4RS)-4-Cyclobutylamino-tetrahydro-pyran-3-yl)-2-cyclo-propyl-4-trifluoromethyl-benzamide] | 0.119 µM
COc1cc(C(F)(F)F)cc(SC)c1C(=O)N[C@@H]1COCC[C@H]1NC1CCC(O)CC1 (mixture of isomers) [Example 33, N-[(3SR,4RS)-4-(4-Hydroxy-cyclohexylamino)-tetrahydro-pyran-3-yl]-2-methoxy-6-methylsulfanyl-4-trifluoromethyl-benzamide] | 0.751 µM
O=C(N[C@@H]1COCC[C@H]1N1CCC(O)CC1)c1ccc(C(F)(F)F)cc1C1CC1 (racemic) [Example 36] | 0.274 µM
COc1cc(C(F)(F)F)cc(SC)c1C(=O)N[C@@H]1CCOC[C@@H]1N1CCCC1 (relative stereo) [Example 63, cis-2-Methoxy-6-methylsulfanyl-N-(3-pyrrolidin-1-yl-tetrahydro-pyran-4-yl)-4-trifluoromethyl-benzamide] | 0.189 µM
COc1cc(C(F)(F)F)cc(SC)c1C(=O)N[C@H]1COCC[C@@H]1N1CCCC1 (single isomer, unassigned) [Example 5, (+)-2-Methoxy-6-methylsulfanyl-N-(4-pyrrolidin-1-yl-tetrahydro-pyran-3-yl)-4-trifluoromethyl-benzamide] | 0.118 µM
COc1cc(C(F)(F)F)cc(SC)c1C(=O)N[C@H]1COCC[C@@H]1N1CCCC1 (single isomer, unassigned) [Example 6, (−)-2-Methoxy-6-methylsulfanyl-N-(4-pyrrolidin-1-yl-tetrahydro-pyran-3-yl)-4-trifluoromethyl-benzamide] | 0.0284 µM
O=C(N[C@H]1COCC[C@@H]1NC1CCCC1)c1ccc(C(F)(F)F)cc1C1CC1 (stereo in doubt) [Example 43, (+)-N-(trans-4-Cyclopentylamino-tetrahydro-pyran-3-yl)-2-cyclopropyl-4-trifluoromethyl-benzamide] | 0.0788 µM
COc1cc(C(F)(F)F)cc(SC)c1C(=O)N[C@@H]1COCC[C@H]1N1C[C@H]2C[C@H]2C1 [Example 34, N-[(3S,4R)-4-(3-Aza-bicyclo[3.1.0]hex-3-yl)-tetra-hydro-pyran-3-yl]-2-methoxy-6-methylsulfanyl-4-trifluoromethyl-benzamide] | 0.11 µM
O=C(N[C@@H]1COCC[C@H]1N1C[C@H]2C[C@H]2C1)c1ccc(C(F)(F)F)cc1C1CC1 [Example 35, N-[(3S,4R)-4-(3-Aza-bicyclo[3.1.0]hex-3-yl)-tetra-hydro-pyran-3-yl]-2-cyclopropyl-4-trifluoromethyl-benzamide] | 0.0265 µM
O=C(N[C@@H]1COCC[C@H]1N1CCCC1)c1ccc(C(F)(F)F)cc1C1CC1 [Example 37, (+)-2-Cyclopropyl-N-(4-pyrrolidin-1-yl-tetrahydro-pyran-3-yl)-4-trifluoromethyl-benzamide] | 0.0834 µM
O=C(N[C@H]1COCC[C@@H]1N1CCCC1)c1ccc(C(F)(F)F)cc1C1CC1 [Example 38, (−)-2-Cyclopropyl-N-(4-pyrrolidin-1-yl-tetrahydro-pyran-3-yl)-4-trifluoromethyl-benzamide] | 0.0834 µM
Cc1cc(C(F)(F)F)cc(C(F)(F)F)c1C(=O)N[C@H]1COCC[C@@H]1N1CCCC1 [Example 39, (+)-2-Methyl-N-trans-(4-pyrrolidin-1-yl-tetrahydro-pyran-3-yl)-4,6-bis-trifluoro-methyl-benzamide] | 0.0439 µM
Cc1cc(C(F)(F)F)cc(C(F)(F)F)c1C(=O)N[C@@H]1COCC[C@H]1N1CCCC1 [Example 40, (−)-2-Methyl-N-trans-(4-pyrrolidin-1-yl-tetrahydro-pyran-3-yl)-4,6-bis-trifluoromethyl-benzamide] | 0.0955 µM

SMILES | IC50
CSc1cc(C(F)(F)F)cc(C(F)(F)F)c1C(=O)N[C@H]1COCC[C@@H]1N1CCCC1 [Example 41, (+)-2-Methylsulfanyl-N-trans-(4-pyrrolidin-1-yl-tetrahydro-pyran-3-yl)-4,6-bis-trifluoromethyl-benzamide] | 0.0447 µM
CSc1cc(C(F)(F)F)cc(C(F)(F)F)c1C(=O)N[C@@H]1COCC[C@H]1N1CCCC1 [Example 42, (−)-2-Methylsulfanyl-N-trans-(4-pyrrolidin-1-yl-tetrahydro-pyran-3-yl)-4,6-bis-trifluoromethyl-benzamide] | 0.027 µM
O=C(N[C@@H]1COCC[C@H]1NC1CCCC1)c1ccc(C(F)(F)F)cc1C1CC1 [Example 44, (−)-N-(trans-4-Cyclopentylamino-tetrahydro-pyran-3-yl)-2-cyclopropyl-4-trifluoromethyl-benzamide] | 0.299 µM
COc1cc(C(F)(F)F)cc(SC)c1C(=O)N[C@H]1COCC[C@@H]1NC1CCCC1 [Example 45, (+)-N-(4-Cyclopentylamino-tetrahydro-pyran-3-yl)-2-methoxy-6-methylsulfanyl-4-trifluoromethyl-benzamide] | 0.111 µM
COc1cc(C(F)(F)F)cc(SC)c1C(=O)N[C@@H]1COCC[C@H]1NC1CCCC1 [Example 46, (−)-N-(4-Cyclopentylamino-tetrahydro-pyran-3-yl)-2-methoxy-6-methylsulfanyl-4-trifluoromethyl-benzamide] | 0.158 µM
O=C(N[C@H]1COCC[C@@H]1N1CCCC1)c1c(C2CC2)cc(C(F)(F)F)cc1C(F)(F)F [Example 47, (+)-2-Cyclopropyl-N-(4-pyrrolidin-1-yl-tetrahydro-pyran-3-yl)-4,6-bis-trifluoromethyl-benzamide] | 0.016 µM
O=C(N[C@@H]1COCC[C@H]1N1CCCC1)c1c(C2CC2)cc(C(F)(F)F)cc1C(F)(F)F [Example 48, (−)-2-Cyclopropyl-N-(4-pyrrolidin-1-yl-tetrahydro-pyran-3-yl)-4,6-bis-trifluoromethyl-benzamide] | 0.02 µM
O=C(N[C@@H]1COCC[C@H]1NC1CCCCC1)c1ccc(C(F)(F)F)cc1C1CC1 [Example 49] | 0.34 µM
O=C(N[C@H]1COCC[C@@H]1NC1CCCCC1)c1ccc(C(F)(F)F)cc1C1CC1 [Example 50] | 0.057 µM
Cc1cc(C(F)(F)F)cc(C)c1C(=O)N[C@H]1COCC[C@@H]1N1CCCC1 [Example 51] | 0.0253 µM
Cc1cc(C(F)(F)F)cc(C)c1C(=O)N[C@@H]1COCC[C@H]1N1CCCC1 [Example 52] | 0.0341 µM
COc1cc(C(F)(F)F)cc(C)c1C(=O)N[C@H]1COCC[C@@H]1N1CCCC1 [Example 53, (+)-2-Methoxy-6-methyl-N-(4-pyrrolidin-1-yl-tetrahydro-pyran-3-yl)-4-trifluoromethyl-benzamide] | 0.0782 µM
COc1cc(C(F)(F)F)cc(C)c1C(=O)N[C@@H]1COCC[C@H]1N1CCCC1 [Example 54] | 0.0338 µM
CCc1cc(C(F)(F)F)cc(OC)c1C(=O)N[C@H]1COCC[C@@H]1N1CCCC1 [Example 55] | 0.0483 µM
CCc1cc(C(F)(F)F)cc(OC)c1C(=O)N[C@@H]1COCC[C@H]1N1CCCC1 [Example 56, (−)-2-Ethyl-6-methoxy-N-(4-pyrrolidin-1-yl-tetrahydro-pyran-3-yl)-4-trifluoro-methyl-benzamide] | 0.0155 µM
COc1cc(C(F)(F)F)cc(C2CC2)c1C(=O)N[C@H]1COCC[C@@H]1N1CCCC1 [Example 57] | 0.0625 µM
COc1cc(C(F)(F)F)cc(C2CC2)c1C(=O)N[C@@H]1COCC[C@H]1N1CCCC1 [Example 58] | 0.0076 µM
